The text below walks through data of PubChem BioAssay AID270 (DTP/NCI, 2004).

Values joined by “and” are separate entries in the source; they are usually repeats but may differ in a detail not shown here. Equal entries are not always repeated. Results filed as inconclusive are left out.

The test system of the experiment is BDF1 mice, s.c. Lewis lung carcinoma, T/C %. As to the kind of experiment: NCI In Vivo Anticancer Drug Screen. Data for tumor model Lewis Lung Carcinoma (subcutaneous) in B6D2F1 (BDF1) mice. The gist of the method:
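The value reflects a ratio in which the treated cohort's survival time or tumour size is compared against mice receiving only vehicle.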

Setting [1] is: endpoint: median survival time, dose: 0.75 mg/kg/injection, schedule: Q01DX009 (ip), vehicle: Klucel (hydroxypropylcellulose) (HPC), higher = longer survival.
[2] abbreviates: endpoint: median survival time, dose: 0.12 mg/kg/injection, schedule: Q01DX009 (ip), vehicle: Klucel (hydroxypropylcellulose) (HPC), higher = longer survival.
Setting [3] is: endpoint: median survival time, dose: 0.25 mg/kg/injection, schedule: Q01DX009 (ip), vehicle: Klucel (hydroxypropylcellulose) (HPC), higher = longer survival.
[4] abbreviates: endpoint: mean tumor weight, dose: 5.0 mg/kg/injection, schedule: Q01DX011 (ip), vehicle: carboxymethylcellulose (CMC), higher = larger tumour.
Setting [5] is: endpoint: mean tumor weight, dose: 10.0 mg/kg/injection, schedule: Q01DX011 (ip), vehicle: carboxymethylcellulose (CMC), higher = larger tumour.

As to `CO[C@H]1C[C@H](O[C@H]2CC[C@]3(C=O)[C@H]4CC[C@]5(C)[C@@H](C6=CC(=O)OC6)CC[C@]5(O)[C@@H]4CC[C@]3(O)C2)O[C@H](C)[C@H]1O`, the T/C by setting is: (endpoint: mean tumor weight, dose: 2.6 mg/kg/injection, schedule: Q01DX011 (sc), vehicle: steriod suspending solution, higher = larger tumour) 59 % of control; (endpoint: mean tumor weight, dose: 4.0 mg/kg/injection, schedule: Q01DX011 (sc), vehicle: steriod suspending solution, higher = larger tumour) 78 % of control.

For the compound `NC(=NCc1ccccc1)c1ccc(N=C(N)c2ccc(C(N)=Nc3ccc(C(N)=NCc4ccccc4)cc3)cc2)cc1`, the T/C by setting is: (endpoint: median survival time, dose: 2.5 mg/kg/injection, schedule: Q01DX009 (ip), vehicle: saline, higher = longer survival) 113 % of control; (endpoint: median survival time, dose: 5.0 mg/kg/injection, schedule: Q01DX009 (ip), vehicle: saline, higher = longer survival) 107 % of control; (endpoint: median survival time, dose: 10.0 mg/kg/injection, schedule: Q01DX009 (ip), vehicle: saline, higher = longer survival) 111 % of control.

As to `CC(=O)[C@@]1(O)CC[C@H]2[C@@H]3C[C@H](C)C4=CC(=O)C=C[C@]4(C)[C@@]3(F)[C@@H](O)C[C@@]21C`, the T/C is 28 % of control (endpoint: mean tumor weight, dose: 25.0 mg/kg/injection, schedule: Q01DX011 (sc), vehicle: steriod suspending solution, higher = larger tumour) and 18 % of control (endpoint: mean tumor weight, dose: 50.0 mg/kg/injection, schedule: Q01DX011 (sc), vehicle: steriod suspending solution, higher = larger tumour).

Consider `ClCC[N+]12CC[N+](CCCl)(CC1)C2`, for which the T/C (endpoint: median survival time, dose: 25.0 mg/kg/injection, schedule: Q01DX009 (ip), vehicle: saline, higher = longer survival) was 105 % of control and the T/C (endpoint: median survival time, dose: 50.0 mg/kg/injection, schedule: Q01DX009 (ip), vehicle: saline, higher = longer survival) is 106 % of control.

Turning to `CNC(=O)N(C)c1cc(N(C)C)nc(OC)n1`, the T/C is 98 % of control (endpoint: median survival time, dose: 5.0 mg/kg/injection, schedule: Q01DX009 (ip), vehicle: Klucel (hydroxypropylcellulose) (HPC), higher = longer survival) and 115 % of control (endpoint: median survival time, dose: 10.0 mg/kg/injection, schedule: Q01DX009 (ip), vehicle: Klucel (hydroxypropylcellulose) (HPC), higher = longer survival).

On to `N#C/C(=C\c1ccncc1)c1csc2ccccc12`, for which the T/C was 119 % of control (endpoint: median survival time, dose: 50.0 mg/kg/injection, schedule: Q01DX009 (ip), vehicle: Klucel (hydroxypropylcellulose) (HPC), higher = longer survival); 97 % of control (endpoint: median survival time, dose: 100.0 mg/kg/injection, schedule: Q01DX009 (ip), vehicle: Klucel (hydroxypropylcellulose) (HPC), higher = longer survival); 110 % of control (endpoint: median survival time, dose: 400.0 mg/kg/injection, schedule: Q01DX009 (ip), vehicle: Klucel (hydroxypropylcellulose) (HPC), higher = longer survival).

`CCCCCCCCCCCCCS`: the T/C was 106 % of control (endpoint: mean tumor weight, dose: 66.0 mg/kg/injection, schedule: Q01DX011 (ip), vehicle: saline, higher = larger tumour); 77 % of control (endpoint: mean tumor weight, dose: 100.0 mg/kg/injection, schedule: Q01DX011 (ip), vehicle: saline, higher = larger tumour); 91 % of control (endpoint: mean tumor weight, dose: 150.0 mg/kg/injection, schedule: Q01DX011 (ip), vehicle: saline, higher = larger tumour).

With `CCCCCC[N+](CCCCCC)(CCCCCC)CCCCCC`, the T/C is 110 % of control under setting [1]; 91 % of control (endpoint: median survival time, dose: 1.5 mg/kg/injection, schedule: Q01DX009 (ip), vehicle: Klucel (hydroxypropylcellulose) (HPC), higher = longer survival); 102 % of control (endpoint: median survival time, dose: 3.0 mg/kg/injection, schedule: Q01DX009 (ip), vehicle: Klucel (hydroxypropylcellulose) (HPC), higher = longer survival).

For `CCCCCCCCCCCCNCCCCCCCCCCCC`, the T/C is 78 % of control (endpoint: mean tumor weight, dose: 2.5 mg/kg/injection, schedule: Q01DX011 (ip), vehicle: other, higher = larger tumour); 67 % of control (endpoint: mean tumor weight, dose: 5.0 mg/kg/injection, schedule: Q01DX011 (ip), vehicle: other, higher = larger tumour); 55 % of control (endpoint: mean tumor weight, dose: 10.0 mg/kg/injection, schedule: Q01DX011 (ip), vehicle: other, higher = larger tumour).

On to `CC(=N\O)/C(C)=N/O.CC(=N\O)/C(C)=N/O.[Pd]`, for which the T/C was 109 % of control under setting [1] and 97 % of control (endpoint: median survival time, dose: 1.57 mg/kg/injection, schedule: Q01DX009 (ip), vehicle: Klucel (hydroxypropylcellulose) (HPC), higher = longer survival).

For `CCC1/C=C/C=C/CC(C)C(O)C(C)(O)C(=O)C(C)C(O)C(C)C(=O)C(C)C(O)C(C)/C=C/C(=O)OC2C(C)C(CC1)OC1(OC(CC(C)O)C(C)CC1=O)C2C` (stereo not given) (tested in a mixture with another compound), the T/C is, setting by setting: (endpoint: mean tumor weight, dose: 2.0 mg/kg/injection, schedule: Q01DX011 (ip), vehicle: saline, higher = larger tumour) 106 % of control; (endpoint: mean tumor weight, dose: 4.0 mg/kg/injection, schedule: Q01DX011 (ip), vehicle: saline, higher = larger tumour) 94 % of control; (endpoint: mean tumor weight, dose: 8.0 mg/kg/injection, schedule: Q01DX011 (ip), vehicle: saline, higher = larger tumour) 82 % of control.

In the case of `CC[C@@]1(O)C(=O)OCc2c1cc1n(c2=O)Cc2cc3c(OC)cccc3nc2-1`, the T/C runs as follows: under setting [2], 119 % of control; under setting [3], 197 % of control; (endpoint: median survival time, dose: 0.51 mg/kg/injection, schedule: Q01DX009 (ip), vehicle: Klucel (hydroxypropylcellulose) (HPC), higher = longer survival) 198 % of control; (endpoint: median survival time, dose: 1.0 mg/kg/injection, schedule: Q01DX009 (ip), vehicle: Klucel (hydroxypropylcellulose) (HPC), higher = longer survival) 198 % of control.

For the compound `COc1cc2c(cc1NC(=O)N(CCCl)N=O)-c1ccccc1C2`, the T/C reads like this: (endpoint: median survival time, dose: 118.0 mg/kg/injection, schedule: Q01DX001 (ip), vehicle: saline with Tween-80, higher = longer survival) 93 % of control; (endpoint: median survival time, dose: 177.0 mg/kg/injection, schedule: Q01DX001 (ip), vehicle: saline with Tween-80, higher = longer survival) 114 % of control; (endpoint: median survival time, dose: 266.0 mg/kg/injection, schedule: Q01DX001 (ip), vehicle: saline with Tween-80, higher = longer survival) 106 % of control; (endpoint: median survival time, dose: 400.0 mg/kg/injection, schedule: Q01DX001 (ip), vehicle: saline with Tween-80, higher = longer survival) 101 % of control; (endpoint: median survival time, dose: 600.0 mg/kg/injection, schedule: Q01DX001 (ip), vehicle: saline with Tween-80, higher = longer survival) 90 % of control.

In the case of `COc1c(Cl)cc2c(c1OC)N(C)C1N3C(=O)C4(C)SSC3(C(=O)N4C)C(O)C21O` (stereo not given), the T/C reads like this: under setting [2], 96 % of control; under setting [3], 94 % of control; (endpoint: median survival time, dose: 0.5 mg/kg/injection, schedule: Q01DX009 (ip), vehicle: Klucel (hydroxypropylcellulose) (HPC), higher = longer survival) 96 % of control.

Turning to `O=S(=O)(Cl)c1cc(Cl)c(Cl)cc1Cl`, the T/C is 71 % of control (endpoint: mean tumor weight, dose: 133.0 mg/kg/injection, schedule: Q01DX011 (ip), vehicle: other, higher = larger tumour); 83 % of control (endpoint: mean tumor weight, dose: 300.0 mg/kg/injection, schedule: Q01DX011 (ip), vehicle: other, higher = larger tumour); 28 % of control and 41 % of control (endpoint: mean tumor weight, dose: 450.0 mg/kg/injection, schedule: Q01DX011 (ip), vehicle: other, higher = larger tumour); 75 % of control (endpoint: mean tumor weight, dose: 600.0 mg/kg/injection, schedule: Q01DX011 (ip), vehicle: other, higher = larger tumour).

Regarding `O=C(Nc1ccc(C2=NCCN2)cc1)c1ccc(C(=O)Nc2ccc(C3=NCCN3)cc2)c(Cl)c1`, the T/C is, setting by setting: under setting [4], 73 % of control; under setting [5], 51 % of control; (endpoint: mean tumor weight, dose: 20.0 mg/kg/injection, schedule: Q01DX011 (ip), vehicle: carboxymethylcellulose (CMC), higher = larger tumour) 81 % of control.

`CCCCCCCCCCCCCCCCCCOC(=O)CCSCCC(=O)OCCCCCCCCCCCCCCCCCC`: the T/C (endpoint: mean tumor weight, dose: 133.0 mg/kg/injection, schedule: Q01DX011 (ip), vehicle: carboxymethylcellulose (CMC), higher = larger tumour) is 117 % of control; the T/C (endpoint: mean tumor weight, dose: 200.0 mg/kg/injection, schedule: Q01DX011 (ip), vehicle: carboxymethylcellulose (CMC), higher = larger tumour) is 88 % of control; the T/C (endpoint: mean tumor weight, dose: 300.0 mg/kg/injection, schedule: Q01DX011 (ip), vehicle: carboxymethylcellulose (CMC), higher = larger tumour) is 101 % of control; the T/C (endpoint: mean tumor weight, dose: 450.0 mg/kg/injection, schedule: Q01DX011 (ip), vehicle: carboxymethylcellulose (CMC), higher = larger tumour) was 86 % of control; the T/C (endpoint: mean tumor weight, dose: 500.0 mg/kg/injection, schedule: Q01DX011 (ip), vehicle: other, higher = larger tumour) is 165 % of control; the T/C (endpoint: mean tumor weight, dose: 750.0 mg/kg/injection, schedule: Q01DX011 (ip), vehicle: other, higher = larger tumour) was 121 % of control.

`Cn1c(O)c(N=NC(N)=S)c2ccccc21`: the T/C is 70 % of control (endpoint: mean tumor weight, dose: 15.0 mg/kg/injection, schedule: Q01DX011 (ip), vehicle: carboxymethylcellulose (CMC), higher = larger tumour); 77 % of control and 82 % of control (endpoint: mean tumor weight, dose: 120.0 mg/kg/injection, schedule: Q01DX011 (ip), vehicle: carboxymethylcellulose (CMC), higher = larger tumour); 57 % of control (endpoint: mean tumor weight, dose: 360.0 mg/kg/injection, schedule: Q01DX011 (ip), vehicle: carboxymethylcellulose (CMC), higher = larger tumour); 52 % of control (endpoint: mean tumor weight, dose: 500.0 mg/kg/injection, schedule: Q01DX011 (ip), vehicle: carboxymethylcellulose (CMC), higher = larger tumour).

As for `O=[N+]([O-])c1ccc(/C=N/c2ncc(Br)s2)o1`, the T/C (endpoint: median survival time, dose: 6.25 mg/kg/injection, schedule: Q01DX009 (ip), vehicle: Klucel (hydroxypropylcellulose) (HPC), higher = longer survival) was 89 % of control and the T/C (endpoint: median survival time, dose: 12.5 mg/kg/injection, schedule: Q01DX009 (ip), vehicle: Klucel (hydroxypropylcellulose) (HPC), higher = longer survival) is 109 % of control.

For `O=C(O)C(=O)O.[U]`, the T/C by setting is: under setting [4], 37 % of control; under setting [5], 55 % of control and 78 % of control; (endpoint: mean tumor weight, dose: 10.0 mg/kg/injection, schedule: Q01DX011 (ip), vehicle: saline, higher = larger tumour) 42 % of control; (endpoint: mean tumor weight, dose: 20.0 mg/kg/injection, schedule: Q01DX011 (ip), vehicle: saline, higher = larger tumour) 27 % of control; (endpoint: median survival time, dose: 4.0 mg/kg/injection, schedule: Q01DX009 (ip), vehicle: Klucel (hydroxypropylcellulose) (HPC), higher = longer survival) 103 % of control; (endpoint: median survival time, dose: 16.0 mg/kg/injection, schedule: Q01DX009 (ip), vehicle: Klucel (hydroxypropylcellulose) (HPC), higher = longer survival) 101 % of control.
